Laboratory results from patent publication US20060193797A1, “Chroman derivatives as lipoxygenase inhibitors” (Galileo Pharmaceuticals, Inc, priority 2005, published 2006).

Experiments:
[1] = target: T1, porcine leukocyte 12/15-lipoxygenase (Sus scrofa, UniProt P16469); assay: 12/15-Lipoxygenase Enzyme Assay (colorimetric, ferric oxidation of xylenol orange); type: biochemical; details: 70 μM arachidonic acid, 10 minute incubation at room temperature, 5 concentrations in triplicate starting at 10 μM; read-out: inhibition of 12/15-Lipoxygenase, IC50
T1 construct: purchased Cayman 60300
T1 sequence (P16469 1-663): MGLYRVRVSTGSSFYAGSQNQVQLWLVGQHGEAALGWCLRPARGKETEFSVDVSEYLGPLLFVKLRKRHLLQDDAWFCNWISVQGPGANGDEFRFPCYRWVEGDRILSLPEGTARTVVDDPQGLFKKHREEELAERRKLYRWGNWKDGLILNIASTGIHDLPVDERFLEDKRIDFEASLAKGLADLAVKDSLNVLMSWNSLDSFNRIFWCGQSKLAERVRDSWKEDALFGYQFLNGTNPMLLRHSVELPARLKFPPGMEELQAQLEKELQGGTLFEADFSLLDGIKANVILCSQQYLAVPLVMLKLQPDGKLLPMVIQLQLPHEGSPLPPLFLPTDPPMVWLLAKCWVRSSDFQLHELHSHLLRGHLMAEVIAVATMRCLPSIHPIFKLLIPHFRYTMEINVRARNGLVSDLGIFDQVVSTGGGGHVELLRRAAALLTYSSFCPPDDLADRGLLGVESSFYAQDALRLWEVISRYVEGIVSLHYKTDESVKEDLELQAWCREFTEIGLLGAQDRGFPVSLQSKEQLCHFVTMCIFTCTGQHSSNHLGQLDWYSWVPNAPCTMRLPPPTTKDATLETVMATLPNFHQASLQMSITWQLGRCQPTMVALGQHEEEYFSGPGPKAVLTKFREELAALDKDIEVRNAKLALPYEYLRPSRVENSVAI
Description: This procedure was used for measuring the enzymatic activity of porcine leukocyte 12/15-lipoxygenase using a colorimetric method based on the ferric oxidation of xylenol orange.
Porcine Leukocyte 12/15-lipoxygenase (Cayman Cat # 60300) was used in this assay. Test compound and/or vehicle were added to 1.3 μL 12/15-lipoxygenase in 50 mM Tris-HCl buffer, pH 7.4. The reaction was initiated by addition of 70 μM arachidonic acid in Tris-HCl buffer, pH 7.4 and terminated after a 10 minute incubation at room temperature by addition of FOX reagent (25 mM sulfuric acid, 100 μM xylenol orange, 100 μM iron (II) sulphate, methanol:water 9:1). The yellow color of acidified xylenol orange was converted to a blue color by the lipid hydroperoxide-mediated oxidation of Fe^2+ ions and the interaction of the resulting Fe^3+ ions with the dye. The complex was allowed to form during a 1 hour incubation at room temperature with shaking. Absorbance of the Fe^3+ complex was then measured at […] using a spectrophotometer.
Negative controls contained enzyme during the incubation step but substrate was not added until after the FOX reagent.
Compounds are screened at 5 concentrations in triplicate starting at 10 μM.

[2] = target: T2, human recombinant 5-lipoxygenase (Homo sapiens, UniProt P09917); assay: 5-Lipoxygenase Enzyme Assay (colorimetric, ferric oxidation of xylenol orange); type: biochemical; details: 70 μM arachidonic acid, 10 minute incubation at room temperature, 5 concentrations in triplicate starting at 10 μM; read-out: inhibition of 5-Lipoxygenase, IC50
T2 construct: purchased Cayman 60402
T2 sequence (P09917 1-674): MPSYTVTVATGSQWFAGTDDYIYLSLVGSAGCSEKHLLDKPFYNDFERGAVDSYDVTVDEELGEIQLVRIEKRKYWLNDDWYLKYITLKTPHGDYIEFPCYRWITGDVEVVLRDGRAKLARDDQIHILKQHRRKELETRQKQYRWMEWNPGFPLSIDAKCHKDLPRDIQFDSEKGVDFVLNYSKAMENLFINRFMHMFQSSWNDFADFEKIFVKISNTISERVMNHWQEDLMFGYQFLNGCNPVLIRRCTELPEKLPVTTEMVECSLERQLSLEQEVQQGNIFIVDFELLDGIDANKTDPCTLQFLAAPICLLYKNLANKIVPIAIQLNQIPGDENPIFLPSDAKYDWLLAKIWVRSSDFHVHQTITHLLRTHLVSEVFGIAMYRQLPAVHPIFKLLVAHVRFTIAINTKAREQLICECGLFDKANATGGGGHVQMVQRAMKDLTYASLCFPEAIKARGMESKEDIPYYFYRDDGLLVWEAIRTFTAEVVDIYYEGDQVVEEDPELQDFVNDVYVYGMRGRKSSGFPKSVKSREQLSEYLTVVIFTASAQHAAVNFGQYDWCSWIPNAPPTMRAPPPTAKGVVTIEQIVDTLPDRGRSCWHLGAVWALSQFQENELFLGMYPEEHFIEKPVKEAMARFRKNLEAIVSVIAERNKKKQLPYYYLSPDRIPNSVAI
Description: This procedure was used for measuring the enzymatic activity of human recombinant 5-lipoxygenase using a colorimetric method based on the ferric oxidation of xylenol orange.
Human recombinant 5-lipoxygenase (Cayman Cat # 60402) was used in this assay. The test compound and/or vehicle was added to 0.5 μL 5-lipoxygenase in 50 mM Tris-HCl buffer, pH 7.4. The reaction was initiated by addition of 70 μM arachidonic acid in Tris-HCl buffer, pH 7.4, and terminated after a 10 minute incubation at room temperature by addition of FOX reagent (25 mM sulfuric acid, 100 μM xylenol orange, 100 μM iron (II) sulphate, methanol:water 9:1). The yellow color of acidified xylenol orange was converted to a blue color by the lipid hydroperoxide-mediated oxidation of Fe^2+ ions and the interaction of the resulting Fe^3+ ions with the dye. The complex was allowed to form during a 1 hour incubation at room temperature with shaking. Absorbance of the Fe^3+ complex was then measured at […] using a spectrophotometer.
Negative controls contained enzyme during the incubation step but substrate was not added until after the FOX reagent. Compounds were screened at 5 concentrations in triplicate starting at 10 μM.

| Structure (SMILES) | IC50 [1] | IC50 [2] |
| --- | --- | --- |
| Cc1c(C)c2c(c(C)c1O)C(O)CC(C)(C)O2 (centres unmarked) [2,2,5,7,8-pentamethylchroman-4,6-diol] | < 5 µM | < 3 µM |
| Cc1c(O)cc2c(c1C)OC(C)(C)CC2O (centres unmarked) [2,2,7,8-tetramethylchroman-4,6-diol] |  | < 3 µM |
| CONC1CC(C)(C)Oc2c(C)c(C)c(O)c(C)c21 (centres unmarked) [4-Methoxyamino-2,2,5,7,8-pentamethyl-chroman-6-ol] | < 5 µM | < 3 µM |
| Cc1c(C)c2c(c(C)c1O)C(=NN(C)C)CC(C)(C)O2 [6-Hydroxy-2,2,5,7,8-pentamethyl-2,3-dihydro-4H-chromen-4-one dimethylhydrazone] |  | < 3 µM |
| CON=C1CC(C)(C)Oc2c(C)c(C)c(O)c(C)c21 [6-Hydroxy-2,2,5,7,8-pentamethyl-chroman-4-one O-methyl-oxime] | < 5 µM | < 3 µM |
| CON=C1CC(C)(C)Sc2c(C)c(C)c(O)c(C)c21 [6-Hydroxy-2,2,5,7,8-pentamethyl-thiochroman-4-one O-methyl-oxime] | < 5 µM | < 3 µM |
| CO/N=C1/Cc2c(C)c(O)c(C)c(C)c2OC1(C)C [6-hydroxy-2,2,5,7,8-pentamethylchroman-3-one O-methyl oxime] | < 5 µM |  |
